Read-outs that look alike come from different tables or passages of the source.
Tests used:
[1] = test system: Ad5; experiment: microbe, parasite or virus in culture; format: cell-based, human adenovirus
[2] = test system: Ad41 (F); experiment: Quantitative real-time PCR of adenovirus DNA replication in A549 cells (Ad41); format: cell-based; details: Human adenovirus sp., read-out: % inhibition of DNA replication (SD)
Method: Approximately 1×10^5 A549 cells were seeded in 24-well plates (Nunc) on the day before infection. On the day of infection, the cells in one well were counted to establish the amount of virions to be added. The growth medium was removed and compound and virus were added simultaneously to the cells in 700 μl DMEM with 0.75 g/l NaHCO3, 20 mM HEPES, 1×PEST, and 1% FBS. Compounds were added in concentrations ranging from 0.5 μM to 15 μM. The final concentration of DMSO was less than 1% in all samples. One pg of Ad virions was added per cell. The plate was incubated at 37° C. in 5% CO2 and 24 h after infection the cells were harvested, washed once, and resuspended in PBS. […] The design of primers and probes for analysis of various Ad types representing different adenovirus species with quantitative PCR has been described previously (Allard et al. 2001. Rapid typing of human adenoviruses by a general PCR combined with restriction endonuclease analysis. Journal Clinical Microbiology 39:498-505). Briefly, quantitative real-time PCR was carried out using a degenerate primer pair, Kadgen1 (forward)—Kadgen 2 (reverse) (5′-CWT ACA TGC ACA TCK CSG G-3′—SEQ ID NO:1, and 5′-CRC GGG CRA AYT GCA CCA G-3′—SEQ ID NO:2, respectively); DNA technology A/S, Aarhus, Denmark). […] Real-time PCR was performed in an ABI PRISM 7700 Sequence Detector (Applied Biosystems) and analyzed with Sequence Detector v1.7a software.

[3] = target: T1, Tn5 transponase (Escherichia coli, UniProt Q46731); details: US 2006/0035245; cited from earlier work
T1 sequence (Q46731 1-476): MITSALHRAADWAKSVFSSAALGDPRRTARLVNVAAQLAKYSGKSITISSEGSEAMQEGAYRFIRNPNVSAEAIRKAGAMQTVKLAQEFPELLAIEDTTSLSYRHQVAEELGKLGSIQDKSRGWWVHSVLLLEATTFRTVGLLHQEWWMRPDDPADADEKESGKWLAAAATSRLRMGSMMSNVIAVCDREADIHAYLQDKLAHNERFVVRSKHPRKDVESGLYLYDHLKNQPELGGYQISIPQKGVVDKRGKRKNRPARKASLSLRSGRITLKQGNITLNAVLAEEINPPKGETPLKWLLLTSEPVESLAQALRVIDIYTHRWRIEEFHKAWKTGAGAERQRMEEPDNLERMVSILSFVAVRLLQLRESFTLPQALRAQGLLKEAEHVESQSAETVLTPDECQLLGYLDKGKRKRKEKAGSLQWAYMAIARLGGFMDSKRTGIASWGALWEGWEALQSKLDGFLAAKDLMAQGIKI

[4] = target: HIV integrase (Human immunodeficiency virus type 1 group M subtype B, UniProt P04585); details: US 2006/0035245; cited from earlier work
[5] = Human adenovirus sp., A549, read-out: % inhibition of DNA replication (SD)

Compound: O=C(Nc1ccccc1C(=O)Nc1ccccc1C(=O)O)c1ccccc1 [Compound A02, 2-[[2-(Benzoylamino)benzoyl]amino]-benzoic acid]
- effect on the replication of Ad5 (QPCR) ([1]; A549 cells): significant inhibitory effect
- selectivity index (SI=CC50/IC50) for Ad5 ([1]; A549 cells): 54
- IC50 ([1]; Human adenovirus sp., A549, 24 h, read-out: IC50 for Ad5 replication (QPCR)): 3.7 µM
- inhibition at 5 µM [1, 5]: 72%
- inhibition at 15 µM [1, 5]: 86%
- EC50 ([1]; unidentified adenovirus, A549): 3.7 µM
- inhibition at 5 µM ([1]; unidentified adenovirus, A549, read-out: % Inh. at 5 μM): 89 ± 5%
- inhibition at 15 µM ([1]; unidentified adenovirus, A549, read-out: % Inh. at 15 μM): 96 ± 1%
- inhibition at 5 µM ([2]; 5 μM): 80%
- inhibition at 15 µM ([2]; 15 μM): 88%
- inhibition of Tn5 transponase [3]: found to inhibit
- inhibition of HIV integrase [4]: failed to inhibit
